# Non-standard residues stand in square brackets, D forms with d. Residues, ends and D or L forms follow the SMILES beside them. *: point of attachment. Dolaproine = CO[C@@H]([C@@H]1CCCN1)[C@@H](C)C(=O)O; Dil = CC[C@H](C)[C@H](NC)[C@@H](CC(=O)O)OC; X1 = C[C@@H](N*)[C@@H](O)c1ccccc1; NMeV = CN[C@H](C(=O)O)C(C)C
# What was measured:
# [1] = Stability of model cysteine conjugates incubated with excess reduced L-glutathione (GSH), tracked via 1H NMR; format: physicochemical; conditions: 3 equivalents GSH, pH 7.4 buffer, 37° C., after two weeks
# Experimental: The stability of conjugate 3 under physiological conditions was investigated by incubation with excess (3 equivalents) reduced L-glutathione (GSH) in pH 7.4 buffer (40% CD-3OD/NaPi—50 mM) at 37° C. The stability was tracked via ^1H NMR and almost no degradation (<5%) was observed after two weeks.
# [2] = system: HER2-positive SKBR3 and BT474 cells; assay: Cell viability (CellTiter-Glo), HER2-positive cells; format: cell-based; conditions: 96 h, HER2-positive cell lines, FIG. 2
# Experimental: (§1) HER2-positive SKBR3 and BT474 cells were obtained from the American Type Culture Collection (ATCC) and HER2-negative MCF7 and T47D cells were obtained from the European Collection of Authenticated Cell Cultures (ECACC) and ATCC, respectively. SKBR3 cells were maintained in high glucose McCoy's 5A medium, supplemented with 10% heat-inactivated foetal-bovine serum (FBS), 50 U/mL penicillin and 50 μg/mL streptomycin. MCF7 cells were maintained in Dulbecco's Modified Eagle Medium (DMEM) supplemented with 10% heat-inactivated fetal-bovine serum (FBS), 2 mM L-glutamine, 50 U/mL penicillin and 50 μg/mL streptomycin. BT474 and T47D cell lines were maintained in RPM11640 medium supplemented with 10% heat-inactivated fetal-bovine serum (FBS), 2 mM L-glutamine, 50 U/mL penicillin and 50 μg/mL streptomycin. All cell lines were incubated at 37° C. with 5% CO2.
# (§2) Cells were seeded in 96-well plates for 24 h at 37° C. with 5% CO2. SKBR3 cells were seeded at 15,000 cells/well, BT474 cells were seeded at 20,000 cells/well, MCF7 cells were seeded at 7,500 cells/well and T47D cells were seeded at 10,000 cells/well. […] Cell viability was measured using CellTiter-Glo viability assay (Promega) according to the manufacturer's instructions. Cell viability was plotted as a percentage of untreated cells.
# [3] = system: HER2-negative MCF7 and T47D cells; assay: Cell viability (CellTiter-Glo), HER2-negative cells; format: cell-based; conditions: 96 h, HER2-negative cell lines, FIG. 2
# Experimental: as §1, §2
# trastuzumab Fab = assay: Trastuzumab Fab conjugation kinetic experiment (LC-MS); conditions: 10 and 20 equivalents of linker, after 15 minutes, 37° C.
# Experimental: The mixtures were vortexed and incubated at 37° C. for 1 h. A solution of 8 (10 mM in DMSO) was added to each solution (final concentration equal to 10 and 20 equivalents) and the reaction mixture incubated at 37° C. At t=0, 5, 10, 15, 20, 30, 40 and 60 min, 0.5 μL was removed from each reaction, diluted with MilliQ water (9 μL) and quenched with 100 eq. of cysteine (5 mM in DMSO). LC-MS analysis was then used to quantify conversion.
compound,measurement,setting,value
"COC(=O)[C@H](CSC1CC(=O)N(Cc2ccccc2)C1=O)NC(=O)OC(C)(C)C (stereo partly drawn) [compound 6, methyl S-(1-benzyl-2,5-dioxopyrrolidin-3-yl)-N-(tert-butoxycarbonyl)-L-cysteinate]",conversion to the glutathione conjugate,[1],> 50%
CC[C@H](C)[C@@H]([C@@H](CC(=O)N1CCC[C@H]1[C@H](OC)[C@@H](C)C(=O)N[C@H](C)[C@@H](O)c1ccccc1)OC)N(C)C(=O)[C@@H](NC(=O)[C@@H](NC)C(C)C)C(C)C [MMAE] (H-[NMeV]V[Dil][Dolaproine]-X1),cytotoxicity (cell viability),[2],high levels of cytotoxicity
same,cytotoxicity (cell viability),[3],high levels of cytotoxicity
"C#CCCCCNc1nc(C=C)cc(C=C)n1 [compound 8, N-(hex-5-yn-1-yl)-4,6-divinylpyrimidin-2-amine]",re-bridging of the Fab chains,trastuzumab Fab,> 90%
COC(=O)[C@H](CSCCc1ccnc(N)n1)NC(=O)OC(C)(C)C [compound 3],degradation,[1],< 5%
